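Cells were grown in 96-well plates and exposed to each compound for 48 hours at five concentrations; endpoints were interpolated linearly between bracketing concentrations, or set to the highest concentration if not reached. At the TGI there is no net growth.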
Legend:
Test in all cases: inhibition of tumour cell growth, NCI panel, 48 h
SK-MEL-2 melanoma = test system: SK-MEL-2 melanoma
U251 CNS = test system: U251 CNS
HCC-2998 colon = test system: HCC-2998 colon
DU-145 prostate = test system: DU-145 prostate
K-562 leukemia = test system: K-562 leukemia
SW-620 colon = test system: SW-620 colon
OVCAR-5 ovarian = test system: OVCAR-5 ovarian
PC-3 prostate = test system: PC-3 prostate
NCI/ADR-RES ovarian = test system: NCI/ADR-RES ovarian
COLO 205 colon = test system: COLO 205 colon
RXF 393 renal = test system: RXF 393 renal
BT-549 breast = test system: BT-549 breast
EKVX NSCLC = test system: EKVX NSCLC
NCI-H522 lung = test system: NCI-H522 lung
TK-10 renal = test system: TK-10 renal
UACC-62 melanoma = test system: UACC-62 melanoma
SK-MEL-28 melanoma = test system: SK-MEL-28 melanoma
SN12C renal = test system: SN12C renal
KM12 colon = test system: KM12 colon
SF-539 CNS = test system: SF-539 CNS
HL-60(TB) leukemia = test system: HL-60(TB) leukemia
NCI-H226 lung = test system: NCI-H226 lung
M14 melanoma = test system: M14 melanoma
A549 NSCLC = test system: A549 NSCLC
A498 renal = test system: A498 renal
ACHN renal = test system: ACHN renal
UACC-257 melanoma = test system: UACC-257 melanoma
IGROV1 ovarian = test system: IGROV1 ovarian
SF-268 CNS = test system: SF-268 CNS
OVCAR-8 ovarian = test system: OVCAR-8 ovarian
NCI-H460 lung = test system: NCI-H460 lung
SF-295 CNS = test system: SF-295 CNS
UO-31 renal = test system: UO-31 renal
SK-MEL-5 melanoma = test system: SK-MEL-5 melanoma
HCT-15 colon = test system: HCT-15 colon
RPMI-8226 leukemia = test system: RPMI-8226 leukemia
SR leukemia = test system: SR leukemia
OVCAR-4 ovarian = test system: OVCAR-4 ovarian
HT29 colon = test system: HT29 colon
OVCAR-3 ovarian = test system: OVCAR-3 ovarian
MDA-N = test system: MDA-N
MDA-MB-231 breast = test system: MDA-MB-231 breast
MOLT-4 leukemia = test system: MOLT-4 leukemia
LOX IMVI melanoma = test system: LOX IMVI melanoma
HOP-92 NSCLC = test system: HOP-92 NSCLC
MCF7 breast = test system: MCF7 breast
786-0 renal = test system: 786-0 renal
HOP-62 NSCLC = test system: HOP-62 NSCLC
MDA-MB-435 = test system: MDA-MB-435
CCRF-CEM leukemia = test system: CCRF-CEM leukemia
SNB-19 CNS = test system: SNB-19 CNS
NCI-H23 lung = test system: NCI-H23 lung
CAKI-1 renal = test system: CAKI-1 renal
HCT-116 colon = test system: HCT-116 colon
HS 578T breast = test system: HS 578T breast
MALME-3M melanoma = test system: MALME-3M melanoma
T-47D breast = test system: T-47D breast
SNB-75 CNS = test system: SNB-75 CNS
SK-OV-3 ovarian = test system: SK-OV-3 ovarian

For `O=C1CC[C@@]2(O)[C@H]3Cc4ccc(-c5cccc(O)c5)c5c4[C@@]2(CCN3CC2CC2)[C@H]1O5`, the TGI (SK-MEL-2 melanoma) was 24.8 µM, the TGI (U251 CNS) was 25.1 µM and the TGI (HCC-2998 colon) was 34.1 µM. For the same compound, the TGI (DU-145 prostate) was over 100 µM, the TGI (K-562 leukemia) was 47 µM and the TGI (SW-620 colon) was over 55.6 µM. For the same compound, the TGI (OVCAR-5 ovarian) was over 80.3 µM, the TGI (PC-3 prostate) was over 91.2 µM and the TGI (NCI/ADR-RES ovarian) was 53.2 µM. The TGI (COLO 205 colon) was 43.3 µM, the TGI (RXF 393 renal) was 52.7 µM and the TGI (BT-549 breast) was 76.6 µM. For the same compound, the TGI (EKVX NSCLC) was over 30.4 µM, the TGI (NCI-H522 lung) was 30.9 µM and the TGI (TK-10 renal) was 47 µM. It also gave a TGI (UACC-62 melanoma) of 28.2 µM, a TGI (SK-MEL-28 melanoma) of over 100 µM and a TGI (SN12C renal) of over 83.3 µM. It also gave a TGI (KM12 colon) of 57.5 µM, a TGI (SF-539 CNS) of 36.6 µM and a TGI (HL-60(TB) leukemia) of 4.92 µM. For the same compound, the TGI (NCI-H226 lung) was 90.2 µM, the TGI (M14 melanoma) was 26.2 µM and the TGI (A549 NSCLC) was over 100 µM. For the same compound, the TGI (A498 renal) was 48.3 µM, the TGI (ACHN renal) was over 85.9 µM and the TGI (UACC-257 melanoma) was 26.5 µM. For the same compound, the TGI (IGROV1 ovarian) was over 89.6 µM, the TGI (SF-268 CNS) was 67.1 µM and the TGI (OVCAR-8 ovarian) was 44.4 µM. For the same compound, the TGI (NCI-H460 lung) was 29.2 µM, the TGI (SF-295 CNS) was 43.9 µM and the TGI (UO-31 renal) was 42.7 µM. It also gave a TGI (SK-MEL-5 melanoma) of 31.2 µM, a TGI (HCT-15 colon) of 71.3 µM and a TGI (RPMI-8226 leukemia) of 52.1 µM. The TGI (SR leukemia) was 66.9 µM, the TGI (OVCAR-4 ovarian) was over 100 µM and the TGI (HT29 colon) was 33.4 µM. It also gave a TGI (OVCAR-3 ovarian) of 43.9 µM, a TGI (MDA-N) of 30.9 µM and a TGI (MDA-MB-231 breast) of 46.9 µM. The TGI (MOLT-4 leukemia) was 56.4 µM, the TGI (LOX IMVI melanoma) was 27.2 µM and the TGI (HOP-92 NSCLC) was 80.8 µM. The TGI (MCF7 breast) was over 92.4 µM, the TGI (786-0 renal) was 36.6 µM and the TGI (HOP-62 NSCLC) was 66.2 µM. For the same compound, the TGI (MDA-MB-435) was 27.8 µM, the TGI (CCRF-CEM leukemia) was 0.513 µM and the TGI (SNB-19 CNS) was over 100 µM. It also gave a TGI (NCI-H23 lung) of over 84 µM, a TGI (CAKI-1 renal) of over 100 µM and a TGI (HCT-116 colon) of 38.6 µM.

Compound `O=C1c2ccccc2C2=Cc3ccccc3C(O)N12` (stereo not drawn) has a TGI (HS 578T breast) of over 100 µM, a TGI (SK-MEL-2 melanoma) of over 100 µM and a TGI (U251 CNS) of over 100 µM. The TGI (HCC-2998 colon) was over 100 µM, the TGI (DU-145 prostate) was over 100 µM and the TGI (K-562 leukemia) was over 100 µM. For the same compound, the TGI (SW-620 colon) was over 100 µM, the TGI (MALME-3M melanoma) was over 100 µM and the TGI (T-47D breast) was over 100 µM. The TGI (OVCAR-5 ovarian) was over 100 µM, the TGI (PC-3 prostate) was over 100 µM and the TGI (NCI/ADR-RES ovarian) was over 100 µM. It also gave a TGI (COLO 205 colon) of over 100 µM, a TGI (RXF 393 renal) of 83.8 µM and a TGI (EKVX NSCLC) of over 100 µM. It also gave a TGI (NCI-H522 lung) of 40.8 µM, a TGI (TK-10 renal) of over 100 µM and a TGI (UACC-62 melanoma) of 65.3 µM. For the same compound, the TGI (SK-MEL-28 melanoma) was over 100 µM, the TGI (SN12C renal) was over 100 µM and the TGI (KM12 colon) was over 100 µM. The TGI (SF-539 CNS) was over 100 µM, the TGI (HL-60(TB) leukemia) was 64.1 µM and the TGI (NCI-H226 lung) was over 100 µM. It also gave a TGI (M14 melanoma) of over 100 µM, a TGI (A549 NSCLC) of over 100 µM and a TGI (A498 renal) of over 100 µM. It also gave a TGI (ACHN renal) of over 100 µM, a TGI (UACC-257 melanoma) of over 100 µM and a TGI (IGROV1 ovarian) of over 100 µM. It also gave a TGI (SF-268 CNS) of over 100 µM, a TGI (OVCAR-8 ovarian) of over 100 µM and a TGI (NCI-H460 lung) of over 100 µM. For the same compound, the TGI (SF-295 CNS) was over 100 µM, the TGI (UO-31 renal) was 35 µM and the TGI (SK-MEL-5 melanoma) was over 100 µM. The TGI (HCT-15 colon) was over 100 µM, the TGI (RPMI-8226 leukemia) was over 100 µM and the TGI (SNB-75 CNS) was over 100 µM. It also gave a TGI (SR leukemia) of 83.5 µM, a TGI (OVCAR-4 ovarian) of over 100 µM and a TGI (SK-OV-3 ovarian) of over 100 µM. It also gave a TGI (HT29 colon) of over 100 µM, a TGI (OVCAR-3 ovarian) of over 100 µM and a TGI (MDA-N) of over 100 µM. The TGI (MDA-MB-231 breast) was over 100 µM, the TGI (MOLT-4 leukemia) was 91.9 µM and the TGI (LOX IMVI melanoma) was over 100 µM. It also gave a TGI (HOP-92 NSCLC) of over 100 µM, a TGI (MCF7 breast) of over 100 µM and a TGI (786-0 renal) of over 100 µM. For the same compound, the TGI (HOP-62 NSCLC) was over 100 µM, the TGI (MDA-MB-435) was over 100 µM and the TGI (CCRF-CEM leukemia) was over 100 µM. For the same compound, the TGI (SNB-19 CNS) was over 100 µM, the TGI (NCI-H23 lung) was over 100 µM and the TGI (CAKI-1 renal) was 43.2 µM. For the same compound, the TGI (HCT-116 colon) was over 100 µM.

`CCc1nnc(CC)n1-n1c(Cc2ccccc2)n[nH]c1=O` showed a TGI (SK-MEL-2 melanoma) of over 100 µM, a TGI (U251 CNS) of over 100 µM and a TGI (HCC-2998 colon) of over 100 µM. The TGI (DU-145 prostate) was over 100 µM, the TGI (K-562 leukemia) was over 100 µM and the TGI (SW-620 colon) was over 100 µM. It also gave a TGI (OVCAR-5 ovarian) of over 100 µM, a TGI (PC-3 prostate) of over 100 µM and a TGI (NCI/ADR-RES ovarian) of over 100 µM. The TGI (COLO 205 colon) was over 100 µM, the TGI (RXF 393 renal) was over 100 µM and the TGI (BT-549 breast) was over 100 µM. The TGI (EKVX NSCLC) was over 100 µM, the TGI (NCI-H522 lung) was over 100 µM and the TGI (TK-10 renal) was over 100 µM. The TGI (UACC-62 melanoma) was over 100 µM, the TGI (SK-MEL-28 melanoma) was over 100 µM and the TGI (SN12C renal) was over 100 µM. It also gave a TGI (KM12 colon) of over 100 µM, a TGI (SF-539 CNS) of over 100 µM and a TGI (M14 melanoma) of over 100 µM. The TGI (A549 NSCLC) was over 100 µM, the TGI (ACHN renal) was over 100 µM and the TGI (UACC-257 melanoma) was over 100 µM. It also gave a TGI (IGROV1 ovarian) of over 100 µM, a TGI (SF-268 CNS) of over 100 µM and a TGI (OVCAR-8 ovarian) of over 100 µM. For the same compound, the TGI (SF-295 CNS) was over 100 µM, the TGI (UO-31 renal) was over 100 µM and the TGI (SK-MEL-5 melanoma) was over 100 µM. For the same compound, the TGI (HCT-15 colon) was over 100 µM, the TGI (RPMI-8226 leukemia) was over 100 µM and the TGI (SNB-75 CNS) was over 100 µM. The TGI (SR leukemia) was over 100 µM, the TGI (OVCAR-4 ovarian) was over 100 µM and the TGI (SK-OV-3 ovarian) was over 100 µM. The TGI (HT29 colon) was over 100 µM, the TGI (OVCAR-3 ovarian) was over 100 µM and the TGI (MDA-N) was over 100 µM. It also gave a TGI (MDA-MB-231 breast) of over 100 µM, a TGI (MOLT-4 leukemia) of over 100 µM and a TGI (LOX IMVI melanoma) of over 100 µM. The TGI (HOP-92 NSCLC) was over 100 µM, the TGI (MCF7 breast) was over 100 µM and the TGI (786-0 renal) was over 100 µM. The TGI (HOP-62 NSCLC) was over 100 µM, the TGI (MDA-MB-435) was over 100 µM and the TGI (CCRF-CEM leukemia) was over 100 µM. For the same compound, the TGI (SNB-19 CNS) was over 100 µM, the TGI (NCI-H23 lung) was over 100 µM and the TGI (HCT-116 colon) was over 100 µM.

From PubChem BioAssay (NCI)
